The conditions of data set [1]: in vivo; cited from earlier work.
Data set [2] has as its target CB2 (Homo sapiens, UniProt P34972). The note with it: cited from earlier work.
Data set [3] is described as follows: Tolerability of CBD and THCV daily doses. Format: in vivo.
The target in data set [4] is CB1 (Homo sapiens, UniProt P21554). The note with it: cited from earlier work.
Chain of CB1 (P21554 whole entry, species assumed): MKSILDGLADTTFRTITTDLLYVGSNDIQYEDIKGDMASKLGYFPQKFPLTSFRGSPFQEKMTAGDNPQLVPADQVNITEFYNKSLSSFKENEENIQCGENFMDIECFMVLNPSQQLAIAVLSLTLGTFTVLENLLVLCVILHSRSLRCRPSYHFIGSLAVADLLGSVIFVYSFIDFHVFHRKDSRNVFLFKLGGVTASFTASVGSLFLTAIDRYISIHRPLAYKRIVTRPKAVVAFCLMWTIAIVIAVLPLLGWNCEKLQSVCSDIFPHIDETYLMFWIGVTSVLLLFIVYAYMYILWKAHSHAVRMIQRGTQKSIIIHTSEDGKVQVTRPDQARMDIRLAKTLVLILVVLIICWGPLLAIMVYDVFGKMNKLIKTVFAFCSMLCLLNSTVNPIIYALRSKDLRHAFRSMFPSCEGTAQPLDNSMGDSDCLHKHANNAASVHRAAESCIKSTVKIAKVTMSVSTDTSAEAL

Chain of CB2 (P34972 whole entry, species assumed): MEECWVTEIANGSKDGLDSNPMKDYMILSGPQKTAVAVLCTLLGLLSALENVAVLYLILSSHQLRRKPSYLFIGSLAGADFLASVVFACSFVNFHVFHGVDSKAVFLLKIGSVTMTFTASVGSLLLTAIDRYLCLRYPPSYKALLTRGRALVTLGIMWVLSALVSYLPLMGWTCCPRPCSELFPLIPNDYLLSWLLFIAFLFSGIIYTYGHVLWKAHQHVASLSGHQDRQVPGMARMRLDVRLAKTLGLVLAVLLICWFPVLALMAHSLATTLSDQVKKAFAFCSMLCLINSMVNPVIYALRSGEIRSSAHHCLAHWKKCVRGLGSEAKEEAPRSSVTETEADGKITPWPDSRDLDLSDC

Consider `CCCCCCC(C)(C)c1cc(O)c2c(c1)OC(C)(C)[C@@H]1CCC(=O)C[C@@H]21` (racemic) [Cesamet, (±)-trans-3-(1,1-dimethylheptyl)-6,6a,7,8,10,10a-hexahydro-lhydroxy-6-6-dimethyl-9H-dibenzo[b,d]pyran-9-one], for which the reducing spasticity entry in data set [1] is reported as “positive results”.

In the case of `CCCCCCC(C)(C)c1cc(O)c2c(c1)oc(=O)c1ccc(OC)cc12` [AM-1710], the “selectivity for CB2 over CB1” value in data set [2] was 54 ×.

Turning to `C=C(C)[C@@H]1CCC(C)=C[C@H]1c1c(O)cc(CCCCC)cc1O` [CBD, 2-[(1R,6R)-6-isopropenyl-3-methylcyclohex-2-en-1-yl]-5-pentylbenzene-1,3-diol], in data set [3] (200 mg CBD per day), the tolerability result was “well tolerated”.

For `CCCn1cc(C(=O)c2ccc(C)c3ccccc23)c2ccccc21` [JWH-120], the “selectivity for CB2” value in data set [2] is on record as 173 fold.

Regarding `CCCn1c(C)c(C(=O)c2ccc(C)c3ccccc23)c2ccccc21` [JWH-148], the “selectivity for CB2 over the CB1 subtype” value in data set [2] is reported as “more than 8 times”.

Take `CCCCCCC(C)(C)c1cc(OC)c2c(c1)OC(C)(C)C1CCC(O)CC21` (stereo not drawn) [JWH-350, 11-nor-1-methoxy-3-(1′,1′-dimethylheptyl)-9α-hydroxyhexahydrocannabinol]: the “selectivity for CB2” value in data set [2] is 33 fold.

For `CCCCCn1cc(C(=O)c2ccc(Cl)c3ccccc23)c2ccccc21` [JWH-398], the figures for the Ki in data set [4] and in data set [2] were 2.3 nM and 2.8 nM, respectively.

For `CCCCCn1cc(C(=O)c2cccc3cccc(Br)c23)c2ccccc21` [JWH-424], the Ki in data set [4] was 20.9 nM; in data set [2], 5.44 nM.

Turning to `CCCCCc1cc(O)c2c(c1)OC(C)(C)[C@@H]1CCC(C)=C[C@@H]21` [Marinol], the reducing spasticity result in data set [1] is listed as “positive results”.

`CCCCC/C=C\C/C=C\C/C=C\C/C=C\CCCC(=O)N[C@H](C)CO` [Methanandamide]: the Ki in data set [4] was 17.9 nM.

Take `CCCc1cc(O)c2c(c1)OC(C)(C)[C@@H]1CCC(C)=C[C@@H]21` [THCV, tetrahydrocannbivarin]: the tolerability result in data set [3] (10 mg THCV per day) is on record as “well tolerated”.

As usually defined, the Ki is the dissociation constant of the complex between target and ligand, obtained from inhibition or displacement.

(Values after patent publication US20220047525A1, “TRANSDERMAL PHARMACEUTICAL FORMULATIONS OF NABILONE ALONE AND IN COMBINATION WITH CANNABINOIDS” (Pike Therapeutics, Inc., priority 2020, published 2022).)
